Results on four molecules are retold here after article PMC5543143, “Structural Basis for the Mechanism of ATP-Dependent Acetone Carboxylation” (Scientific Reports, 2017).

In data set [1] the target is T1, acetone carboxylase (AC, XaAC), recombinant (Xanthobacter versatilis, UniProt Q8RM03+Q8RM04).
T1 construct: gene acxA
Conditions: turnover only.

The target of data set [2] is T2, native acetone carboxylase (AC) from X. autotrophicus 7C (Xanthobacter versatilis, UniProt Q8RM03+Q8RM04). More on the design: gene acxA. Conditions: with acetone and HCO3-; turnover only.
Data set [3] deals with T2, native acetone carboxylase (AC) from X. autotrophicus 7C. Briefly: X-ray crystal structure. More on the design: gene acxA; native purification from acetone-grown cells, untagged; (alpha beta gamma)2 heterohexamer, 360 kDa; with Acetone carboxylase gamma subunit. Conditions: co-crystallised with 10 mM ATP and 10 mM acetone; AMP bound at beta subunit; acetate at Mn site; pH 7.5. Type of data set: binding.

Data set [4] deals with the molecule itself. Briefly: crystal structure; recombinant AC (αβγ)2, ligand-free and AMP-bound; hanging drop, 25 °C, 14-18% PEG 3350, 0.2 M MgSO4, pH 6.3; nucleotide additives 5 mM; SAD with selenium.

Like-named read-outs stand apart in the source and are kept apart here.

T1 sequence (Q8RM04 whole entry, one chain of several): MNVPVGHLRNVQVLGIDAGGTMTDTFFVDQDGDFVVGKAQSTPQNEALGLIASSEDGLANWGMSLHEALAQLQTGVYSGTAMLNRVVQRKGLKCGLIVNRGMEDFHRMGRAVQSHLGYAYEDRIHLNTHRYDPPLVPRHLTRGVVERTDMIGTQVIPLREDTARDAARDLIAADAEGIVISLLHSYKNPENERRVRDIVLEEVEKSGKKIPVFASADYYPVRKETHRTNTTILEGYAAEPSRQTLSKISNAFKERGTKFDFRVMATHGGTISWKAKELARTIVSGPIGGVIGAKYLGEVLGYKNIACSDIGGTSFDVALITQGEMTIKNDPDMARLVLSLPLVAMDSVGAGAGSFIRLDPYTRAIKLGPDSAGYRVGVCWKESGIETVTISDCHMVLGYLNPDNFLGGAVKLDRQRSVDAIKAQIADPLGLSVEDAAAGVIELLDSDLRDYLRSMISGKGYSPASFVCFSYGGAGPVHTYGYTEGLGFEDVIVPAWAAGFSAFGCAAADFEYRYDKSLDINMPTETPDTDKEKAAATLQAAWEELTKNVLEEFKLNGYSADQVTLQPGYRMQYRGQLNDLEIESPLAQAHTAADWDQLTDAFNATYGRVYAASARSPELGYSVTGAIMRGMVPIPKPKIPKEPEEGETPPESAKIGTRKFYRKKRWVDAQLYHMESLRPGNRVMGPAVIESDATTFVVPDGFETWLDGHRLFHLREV
T1 sequence (Q8RM02 2-168, one chain of several, further chain): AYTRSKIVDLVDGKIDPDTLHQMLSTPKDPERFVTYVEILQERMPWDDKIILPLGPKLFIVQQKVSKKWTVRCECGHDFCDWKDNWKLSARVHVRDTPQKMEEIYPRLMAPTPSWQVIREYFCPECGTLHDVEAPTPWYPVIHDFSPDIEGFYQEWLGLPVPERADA
T2 sequence (Q8RM04 whole entry, one chain of several): as the sequence (Q8RM04 whole entry, one chain of several) above
T2 sequence (Q8RM02 2-168, one chain of several, further chain): as the sequence (Q8RM02 2-168, one chain of several, further chain) above

For `Nc1ncnc2c1ncn2[C@@H]1O[C@H](COP(=O)(O)OP(=O)(O)OP(=O)(O)O)[C@@H](O)[C@H]1O` [ATP], the “coupled spectrophotometric assay with 3-hydroxybutyrate dehydrogenase” value in data set [1] (with acetone and HCO3-) is “actively catalyzed the ATP- and HCO3 ^− -dependent carboxylation of acetone to acetoacetate”. In addition, the acetone carboxylation activity result in data set [2] was “actively catalyzed the ATP- and HCO3 ^− -dependent carboxylation of acetone to acetoacetate”. As to `CC(C)=O` [acetone], the “coupled spectrophotometric assay with 3-hydroxybutyrate dehydrogenase” value in data set [1] (ATP and HCO3- dependent carboxylation to acetoacetate) was “actively catalyzed the ATP- and HCO3 ^− -dependent carboxylation of acetone to acetoacetate”. Consider `Nc1ncnc2c1ncn2[C@@H]1O[C@H](COP(=O)(O)O)[C@@H](O)[C@H]1O` [AMP], for which the X-ray crystal structure result in data set [3] was “with AMP bound and no acetone visible in the density”.

B1: acetone carboxylase α subunit (AcxB) from Xanthobacter autotrophicus Py2, recombinant (natural protein, UniProt Q8RM03 1-776, looked up)
chain: MNVTVDQSTLAGATRGIVRGGETLKEHRDRLMAATKATGRYAGLKTLELREREPILYNKLFSRLRAGVVDARETAKKIAASPIVEQEGELCFTLYNAAGDSLLTSTGIIIHVGTMGAAIKYMIENNWEANPGVHDKDIFCNNDSLIGNVHPCDIHTIVPIFWEGELIGWVGGVTHVIDTGAVGPGSMATGQVQRFGDGYSITCRKVGANDTLFRDWLHESQRMVRTTRYWMLDERTRIAGCHMIRKLVEEVVAEEGIEAYWKFAYEAVEHGRLGLQARIKAMTIPGTYRQVGFVDVPYAHEDVRVPSDFAKLDTIMHAPCEMTIRRDGTWRLDFEGSSRWGWHTYNAHQVSFTSGIWVMMTQTLIPSEMINDGAAYGTEFRLPKGTWMNPDDRRVAFSYSWHFLVSAWTALWRGLSRSYFGRGYLEEVNAGNANTSNWLQGGGFNQYDEIHAVNSFECAANGTGATAVQDGLSHAAAIWNPEGDMGDMEIWELAEPLVYLGRQIKASSGGSGKYRGGCGFESLRMVWNAKDWTMFFMGNGHISSDWGLMGGYPAASGYRFAAHKTNLKELIASGAEIPLGGDTDPENPTWDAMLPDAQIKRDKQAITTEEMFSDYDLYLNYMRGGPGFGDPLDREPQAVADDINGGYVLERFAGEVYGVVVRKGADGQYGVDEAGTAAARAQIRKDRLAKSVPVSEWMKGEREKILAKDAGTQVRQMFAASFKLGPRFEKDFRTFWSLPDSWTLPEEEIGVPTYGSRYSMDISELPDVHTVQFVEE
notes: acetone carboxylase α subunit (75 kDa), gene acxB (Xaut_3510), X. autotrophicus Py2; amplified from the start to the stop codon; Subunit of the (αβγ)2 heterohexamer; The initial structure was solved from selenomethionine-labelled protein; also called AC α; Xaut_3510; source: E. coli BL21(DE3), co-expressed with the β and γ subunits, purified (His-NTA, desalting)
On to B1, for which, in data set [4], the binding result was “binds”.
